Data on 22 compounds can be found in patent publication US11472805B2, “Tricyclic compounds and their use as phosphodiesterase inhibitors” (Pfizer Inc., priority 2015, dated 2022).

Type in all cases: biochemical
The target of one experiment is human PDE4D3 (Homo sapiens (Human), UniProt Q08499). Kind of experiment: PDE4D3 Scintillation Proximity Assay (SPA), inhibition of enzyme activity. To be noted: Table 9, geometric mean of 2-9 determinations unless otherwise indicated, read-out: Human PDE4D FL. The essentials: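 His-tagged human PDE4D3 (aa 50–672), expressed in insect cells, hydrolysed 1 μM cAMP (3H tracer plus cold) for 30 min at 25° C in 50 mM Tris pH 7.5, 1.3 mM MgCl2 and 0.01% Brij. Enzyme level was set for ~20% conversion. Product was read by yttrium silicate SPA beads after 8 h settling.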
A general note: In a scintillation proximity assay essentially only radioactivity close to the scintillant gives light.

The target of a further experiment is Human PDE4A3 (Homo sapiens (Human), UniProt P27815). Kind of experiment: PDE4A3 Scintillation Proximity Assay (SPA), inhibition of enzyme activity. To be noted: Table 9, geometric mean of 2-9 determinations unless otherwise indicated, read-out: Human PDE4A FL. The essentials: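 Recombinant human PDE4A3 expressed in insect cells, purified via Ni-NTA, anti-FLAG and size exclusion. SPA run 30 min at 25 °C in 50 mM Tris pH 7.5, 1.3 mM MgCl2, 0.01% Brij with 1 μM cAMP (20 nM 3H-cAMP), […], ~20% substrate conversion; stopped with yttrium silicate beads.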

A further experiment concerns the target Human PDE4B1 (Homo sapiens (Human), UniProt Q07343, S133E/S654A/S659A/S661A). The experiment is described as follows: PDE4B1 Scintillation Proximity Assay (SPA), inhibition of enzyme activity. To be noted: Table 9, geometric mean of 2-9 determinations unless otherwise indicated, read-out: Human PDE4B FL. The essentials:
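His-tagged enzyme from baculovirus-infected insect cells, Ni-NTA purified. SPA with 1 μM cAMP (20 nM 3H-cAMP tracer) in 50 mM Tris pH 7.5, 1.3 mM MgCl2, 0.01% Brij, […] PDE4B enzyme for ~20% substrate conversion; 30 min at 25 °C, stopped with yttrium silicate beads, read after 8 h settling.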

The target in another experiment is Human PDE4C1 (Homo sapiens (Human), UniProt Q08493). Kind of experiment: PDE4C1 Scintillation Proximity Assay (SPA), inhibition of enzyme activity. To be noted: Table 9, geometric mean of 2-9 determinations unless otherwise indicated, read-out: Human PDE4C FL. The essentials:
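Recombinant insect-cell-expressed human PDE4C1 […] in 50 mM Tris pH 7.5, 1.3 mM MgCl2, 0.01% Brij with 1 μM cAMP (3H-cAMP tracer), ~20% substrate conversion, inhibitor concentration range. Incubated 30 min at 25° C; stopped with yttrium silicate SPA beads, read by scintillation after 8 h settling.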

Chain of Human PDE4C1 (Q08493 2-712): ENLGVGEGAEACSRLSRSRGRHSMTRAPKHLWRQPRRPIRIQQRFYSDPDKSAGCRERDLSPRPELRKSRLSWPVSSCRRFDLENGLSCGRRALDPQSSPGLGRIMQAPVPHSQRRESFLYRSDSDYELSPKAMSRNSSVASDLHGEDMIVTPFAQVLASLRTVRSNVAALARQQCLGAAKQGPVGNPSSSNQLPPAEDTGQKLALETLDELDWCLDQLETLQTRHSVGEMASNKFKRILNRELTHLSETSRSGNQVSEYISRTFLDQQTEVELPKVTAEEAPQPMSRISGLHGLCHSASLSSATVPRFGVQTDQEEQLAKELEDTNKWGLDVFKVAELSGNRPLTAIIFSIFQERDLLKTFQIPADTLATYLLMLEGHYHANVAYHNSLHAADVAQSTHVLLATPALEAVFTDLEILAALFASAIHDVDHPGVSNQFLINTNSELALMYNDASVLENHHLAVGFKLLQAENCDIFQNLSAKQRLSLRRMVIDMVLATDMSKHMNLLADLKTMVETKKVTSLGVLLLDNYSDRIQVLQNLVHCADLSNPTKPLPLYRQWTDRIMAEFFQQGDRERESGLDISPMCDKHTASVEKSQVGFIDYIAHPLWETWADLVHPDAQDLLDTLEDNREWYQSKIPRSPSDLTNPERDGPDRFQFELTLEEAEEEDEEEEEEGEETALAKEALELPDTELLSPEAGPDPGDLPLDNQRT
Chain of Human PDE4A3 (P27815 other isoform, or with tags, fused parts or gaps): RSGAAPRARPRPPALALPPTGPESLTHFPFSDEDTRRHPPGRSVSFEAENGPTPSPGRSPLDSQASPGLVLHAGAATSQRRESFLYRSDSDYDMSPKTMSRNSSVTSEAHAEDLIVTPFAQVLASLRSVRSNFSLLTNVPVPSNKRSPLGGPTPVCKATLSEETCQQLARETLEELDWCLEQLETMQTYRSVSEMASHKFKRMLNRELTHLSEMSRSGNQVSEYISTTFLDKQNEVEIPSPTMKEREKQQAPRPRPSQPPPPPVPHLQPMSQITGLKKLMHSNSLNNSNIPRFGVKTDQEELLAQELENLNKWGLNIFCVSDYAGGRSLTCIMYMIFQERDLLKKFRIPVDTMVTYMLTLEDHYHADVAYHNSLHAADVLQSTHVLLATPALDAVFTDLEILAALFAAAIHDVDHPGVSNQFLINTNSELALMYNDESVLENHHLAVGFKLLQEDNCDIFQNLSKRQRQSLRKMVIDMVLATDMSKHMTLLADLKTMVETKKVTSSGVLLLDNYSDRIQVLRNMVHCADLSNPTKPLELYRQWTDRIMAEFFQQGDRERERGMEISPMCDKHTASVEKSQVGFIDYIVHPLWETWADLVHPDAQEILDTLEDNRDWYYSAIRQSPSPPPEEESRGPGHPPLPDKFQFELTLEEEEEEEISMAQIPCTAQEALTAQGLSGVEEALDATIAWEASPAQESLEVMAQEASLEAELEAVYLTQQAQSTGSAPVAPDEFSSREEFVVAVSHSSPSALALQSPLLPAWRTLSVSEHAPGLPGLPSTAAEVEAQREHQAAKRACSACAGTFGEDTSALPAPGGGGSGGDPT
Chain of Human PDE4B1 (Q07343 122-736 S133E/S654A/S659A/S661A): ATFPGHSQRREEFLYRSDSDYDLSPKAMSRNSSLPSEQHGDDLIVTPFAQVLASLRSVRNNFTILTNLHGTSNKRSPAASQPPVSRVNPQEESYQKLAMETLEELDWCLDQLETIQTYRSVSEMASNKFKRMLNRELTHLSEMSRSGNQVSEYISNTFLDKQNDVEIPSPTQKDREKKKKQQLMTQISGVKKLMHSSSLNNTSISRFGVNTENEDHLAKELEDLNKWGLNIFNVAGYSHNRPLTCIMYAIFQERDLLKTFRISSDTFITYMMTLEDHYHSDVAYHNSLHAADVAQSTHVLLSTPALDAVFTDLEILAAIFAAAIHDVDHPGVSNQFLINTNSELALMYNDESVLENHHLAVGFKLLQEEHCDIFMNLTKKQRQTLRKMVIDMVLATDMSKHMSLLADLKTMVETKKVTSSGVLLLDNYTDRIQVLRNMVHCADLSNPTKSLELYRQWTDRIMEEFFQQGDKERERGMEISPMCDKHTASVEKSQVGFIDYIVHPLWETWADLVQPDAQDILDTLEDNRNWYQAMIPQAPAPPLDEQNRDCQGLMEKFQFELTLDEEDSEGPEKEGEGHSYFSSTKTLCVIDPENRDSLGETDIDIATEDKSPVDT
Chain of human PDE4D3 (Q08499 186-808): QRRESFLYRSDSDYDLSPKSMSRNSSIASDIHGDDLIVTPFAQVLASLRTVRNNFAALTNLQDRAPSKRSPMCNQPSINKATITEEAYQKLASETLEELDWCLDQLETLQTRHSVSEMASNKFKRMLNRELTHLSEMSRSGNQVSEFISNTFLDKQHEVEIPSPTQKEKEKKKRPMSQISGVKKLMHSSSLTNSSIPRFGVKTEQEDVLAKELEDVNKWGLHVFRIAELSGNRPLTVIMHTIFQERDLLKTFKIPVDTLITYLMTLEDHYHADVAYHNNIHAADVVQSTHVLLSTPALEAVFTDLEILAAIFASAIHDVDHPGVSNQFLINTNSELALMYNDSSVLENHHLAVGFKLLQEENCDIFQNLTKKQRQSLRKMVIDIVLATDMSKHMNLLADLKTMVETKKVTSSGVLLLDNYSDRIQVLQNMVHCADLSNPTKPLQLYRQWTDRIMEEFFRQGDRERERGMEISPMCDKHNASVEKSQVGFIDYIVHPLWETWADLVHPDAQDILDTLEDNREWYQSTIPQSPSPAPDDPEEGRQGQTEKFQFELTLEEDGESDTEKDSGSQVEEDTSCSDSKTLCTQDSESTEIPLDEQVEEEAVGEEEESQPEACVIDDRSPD

`COc1ccc(-c2c3n(c4cccnc24)CCN(C2CC2)C3=O)cc1F` [Example 45, 8-Cyclopropyl-10-(3-fluoro-4-methoxyphenyl)-7,8-dihydropyrido[2′,3′:4,5]pyrrolo[1,2-a]pyrazin-9(6H)-one]: the IC50 on human PDE4D3 was found to be 0.281 µM; on Human PDE4A3 it was 0.00159 µM; at Human PDE4B1, 0.00581 µM; on Human PDE4C1, 0.00788 µM.

With `O=C1c2c(-c3cc(F)ccc3F)c3ncccc3n2CCN1C1CC1` [Example 46, 8-Cyclopropyl-10-(2,5-difluorophenyl)-7,8-dihydropyrido[2′,3′:4,5]pyrrolo[1,2-a]pyrazin-9(6H)-one], the IC50 was 0.203 µM on human PDE4D3, 0.00229 µM on Human PDE4A3, 0.00404 µM at Human PDE4B1 and 0.00698 µM on Human PDE4C1.

On to `O=C1c2c(-c3ccc(Cl)cc3F)c3ncccc3n2CCN1C1CC1` [Example 47, 10-(4-Chloro-2-fluorophenyl)-8-cyclopropyl-7,8-dihydropyrido[2′,3′:4,5]pyrrolo[1,2-a]pyrazin-9(6H)-one], for which the IC50 on human PDE4D3 was 0.142 µM; on Human PDE4A3 it was 0.002 µM; at Human PDE4B1 it was 0.00114 µM; at Human PDE4C1 it was 0.00288 µM.

Consider `O=C1c2c(-c3cccc(Cl)c3)c3ncccc3n2CCN1C1CC1` [Example 48, 10-(3-Chlorophenyl)-8-cyclopropyl-7,8-dihydropyrido[2′,3′:4,5]pyrrolo[1,2-a]pyrazin-9(6H)-one], for which the IC50 was 0.0198 µM on human PDE4D3, 0.001 µM on Human PDE4A3, less than 0.00072 µM at Human PDE4B1 and 0.00316 µM at Human PDE4C1.

Regarding `Cc1cc(F)ccc1-c1c2n(c3cccnc13)CCN(C1CC1)C2=O` [Example 49, 8-Cyclopropyl-10-(4-fluoro-2-methylphenyl)-7,8-dihydropyrido[2′,3′:4,5]pyrrolo[1,2-a]pyrazin-9(6H)-one], the IC50 at human PDE4D3 is 0.395 µM; at Human PDE4A3, 0.00271 µM; at Human PDE4B1 it was 0.00579 µM; at Human PDE4C1, 0.00939 µM.

For `Cc1cc(C#N)ccc1-c1c2n(c3cccnc13)CCN(C1CC1)C2=O` [Example 50, 4-(8-Cyclopropyl-9-oxo-6,7,8,9-tetrahydropyrido[2′,3′:4,5]pyrrolo[1,2-a]pyrazin-10-yl)-3-methylbenzonitrile], the IC50 at human PDE4D3 is 0.356 µM; on Human PDE4A3, 0.00299 µM; on Human PDE4B1, 0.0069 µM; on Human PDE4C1, 0.00962 µM.

For the compound `O=C1c2c(-c3cncc(Cl)c3)c3ncccc3n2CCN1C1CC1` [Example 51, 10-(5-Chloropyridin-3-yl)-8-cyclopropyl-7,8-dihydropyrido[2′,3′:4,5]pyrrolo[1,2-a]pyrazin-9(6H)-one], the IC50 was 2.01 µM at human PDE4D3, 0.0867 µM on Human PDE4A3, 0.0261 µM on Human PDE4B1 and 0.694 µM on Human PDE4C1.

On to `COc1ccc(-c2c3n(c4cccnc24)CCN(C2CC2)C3=O)c(F)c1` [Example 54, 8-Cyclopropyl-10-(2-fluoro-4-methoxyphenyl)-7,8-dihydropyrido[2′,3′:4,5]pyrrolo[1,2-a]pyrazin-9(6H)-one], for which the IC50 on human PDE4D3 amounted to 3.77 µM; at Human PDE4A3, 0.0212 µM; on Human PDE4B1, 0.0546 µM; at Human PDE4C1 it was 0.0358 µM.

With `O=C1c2c(-c3cncnc3)c3ncccc3n2CCN1C1CC1` [Example 55, 8-Cyclopropyl-10-(pyrimidin-5-yl)-7,8-dihydropyrido[2′,3′:4,5]pyrrolo[1,2-a]pyrazin-9(6H)-one], the IC50 stood at 3.7 µM at human PDE4D3, 0.222 µM at Human PDE4A3, 0.111 µM on Human PDE4B1 and 0.5 µM on Human PDE4C1.

For the compound `Cc1cc(N2CCn3c(c(-c4ccc(Cl)cc4)c4ncccc43)C2=O)no1` [Example 57, 10-(4-Chlorophenyl)-8-(5-methyl-1,2-oxazol-3-yl)-7,8-dihydropyrido[2′,3′:4,5]pyrrolo[1,2-a]pyrazin-9(6H)-one], the IC50 at human PDE4D3 was found to be 0.0383 µM; on Human PDE4A3 it was 0.00349 µM; on Human PDE4B1, 0.00381 µM; on Human PDE4C1, 0.0108 µM.

In the case of `O=C1c2c(-c3ccc4ncnn4c3)c3ncccc3n2CCN1C1CC1` [Example 58, 8-Cyclopropyl-10-([1,2,4]triazolo[1,5-a]pyridin-6-yl)-7,8-dihydropyrido[2′,3′:4,5]pyrrolo[1,2-a]pyrazin-9(6H)-one], the IC50 was determined as 0.624 µM at human PDE4D3, 0.0126 µM on Human PDE4A3, 0.024 µM at Human PDE4B1 and 0.0626 µM at Human PDE4C1.

As for `COc1c(F)cc(-c2c3n(c4nccnc24)CCN(C2CC2)C3=O)cc1F` [Example 59, 8-Cyclopropyl-10-(3,5-difluoro-4-methoxyphenyl)-7,8-dihydropyrrolo[1,2-a:4,5-b′]dipyrazin-9(6H)-one], the IC50 at human PDE4D3 is 0.29 µM; at Human PDE4A3 it was 0.0126 µM; on Human PDE4B1, 0.00973 µM; on Human PDE4C1, 0.0877 µM.

On to `Cc1ccc(C#N)cc1-c1c2n(c3cccnc13)CCN(C1CC1)C2=O` [Example 60, 3-(8-Cyclopropyl-9-oxo-6,7,8,9-tetrahydropyrido[2′,3′:4,5]pyrrolo[1,2-a]pyrazin-10-yl)-4-methylbenzonitrile], for which the IC50 at human PDE4D3 was 0.397 µM; on Human PDE4A3 it was 0.0118 µM; on Human PDE4B1, 0.0112 µM; on Human PDE4C1, 0.099 µM.

On to `N#Cc1ccc(-c2c3n(c4cccnc24)CC2CCCN2C3=O)cc1` (stereo not shown) [Example 61, 4-(11-Oxo-6a,7,8,9-tetrahydro-6H,11H-pyrido[2′,3′:4,5]pyrrolo[1,2-a]pyrrolo[1,2-d]pyrazin-12-yl)benzonitrile], for which the IC50 at human PDE4D3 was 1.64 µM; on Human PDE4A3, 0.0351 µM; on Human PDE4B1, 0.039 µM; at Human PDE4C1 it was 0.0603 µM.

On to `O=C1c2c(-c3ccc(Cl)cc3)c3ncccc3n2CC2COCCN12` (stereo not shown) [Example 63, 13-(4-Chlorophenyl)-6a,7,9,10-tetrahydro-6H,12H-pyrido[2″,3″:4′,5′]pyrrolo[1′,2′:4,5]pyrazino[2,1-c][1,4]oxazin-12-one], for which the IC50 on human PDE4D3 stood at 1.35 µM; at Human PDE4A3, 0.219 µM; on Human PDE4B1, 0.0321 µM; on Human PDE4C1 it was 0.731 µM.

Regarding `O=C1c2c(-c3cnc4ccoc4c3)c3ncccc3n2CCN1C1CC1` [Example 64, 8-Cyclopropyl-10-(furo[3,2-b]pyridin-6-yl)-7,8-dihydropyrido[2′,3′:4,5]pyrrolo[1,2-a]pyrazin-9(6H)-one], the IC50 at human PDE4D3 was 0.458 µM; on Human PDE4A3, 0.00356 µM; on Human PDE4B1 it was 0.0115 µM; on Human PDE4C1 it was 0.0375 µM.

On to `Cc1ccc(-c2c3n(c4cccnc24)CCN(C2CC2)C3=O)c(C)c1` [Example 65, 8-Cyclopropyl-10-(2,4-dimethylphenyl)-7,8-dihydropyrido[2′,3′:4,5]pyrrolo[1,2-a]pyrazin-9(6H)-one], for which the IC50 at human PDE4D3 is 0.481 µM; at Human PDE4A3 it was 0.00565 µM; on Human PDE4B1, 0.0067 µM; on Human PDE4C1 it was 0.0138 µM.

With `Cc1ccc(-c2c3ncccc3n3ccn(C4CC4)c(=O)c23)c(C)c1` [Example 66, 8-Cyclopropyl-10-(2,4-dimethyl-phenyl)pyrido[2′,3′:4,5]pyrrolo[1,2-a]pyrazin-9(8H)-one], the IC50 on human PDE4D3 was found to be 0.46 µM; at Human PDE4A3, 0.00542 µM; on Human PDE4B1, 0.00687 µM; at Human PDE4C1 it was 0.0167 µM.

As for `N#Cc1ccc(-c2c3ncccc3n3ccn(C4CC4)c(=O)c23)cc1` [Example 70, 4-(8-Cyclopropyl-9-oxo-8,9-dihydropyrido[2′,3′:4,5]pyrrolo[1,2-a]pyrazin-10-yl)benzonitrile], the IC50 at human PDE4D3 stood at 0.108 µM; on Human PDE4A3, 0.0028 µM; at Human PDE4B1, 0.00267 µM; on Human PDE4C1, 0.00855 µM.

With `N#Cc1ccc(-c2c3n(c4scnc24)CCN(C2CC2)C3=O)cn1` [Example 71, 5-(7-Cyclopropyl-8-oxo-5,6,7,8-tetrahydro[1,3]thiazolo[4′,5′:4,5]pyrrolo[1,2-a]pyrazin-9-yl)pyridine-2-carbonitrile], the IC50 at human PDE4D3 came to 1.07 µM; at Human PDE4A3, 0.0276 µM; on Human PDE4B1, 0.0435 µM; at Human PDE4C1, 0.0525 µM.

Turning to `N#Cc1ccc(-c2c3n(c4scnc24)CCN(C2CC2)C3=O)cc1F` [Example 72, 4-(7-Cyclopropyl-8-oxo-5,6,7,8-tetrahydro[1,3]thiazolo[4′,5′:4,5]pyrrolo[1,2-a]pyrazin-9-yl)-2-fluorobenzonitrile], the IC50 amounted to 0.0904 µM at human PDE4D3, 0.00353 µM on Human PDE4A3, 0.00436 µM at Human PDE4B1 and 0.0151 µM on Human PDE4C1.

For `Cc1cc(Cl)ccc1-c1c2n(c3cccnc13)CCN(c1ncccn1)C2=O` [Example 73, 10-(4-Chloro-2-methylphenyl)-8-(pyrimidin-2-yl)-7,8-dihydropyrido[2′,3′:4,5]pyrrolo[1,2-a]pyrazin-9(6H)-one], the IC50 on human PDE4D3 is 0.7 µM; at Human PDE4A3, 0.00766 µM; at Human PDE4B1, 0.0252 µM; on Human PDE4C1, 0.122 µM.
